Experimental data from ChEMBL document CHEMBL1201862, “PubChem BioAssay data set” (2004).
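Exposure lasted 48 hours, with cells grown in 96-well plates and compounds tested at five concentrations. Here, GI50 denotes the concentration required for 50% inhibition of growth.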 Activity calls are given as the source filed them. Rule as the data show it: active = GI50 up to about 1.1 µM and inactive = higher.

Tests used:
Test in all cases: NCI tumour cell line growth inhibition, 48 h
NCI/ADR-RES = system: NCI/ADR-RES
SK-OV-3 = system: SK-OV-3
NCI-H522 = system: NCI-H522
CAKI-1 = system: CAKI-1
UACC-257 = system: UACC-257
CCRF-CEM = system: CCRF-CEM
HCC 2998 = system: HCC 2998
OVCAR-3 = system: OVCAR-3
NCI-H226 = system: NCI-H226
SN12C = system: SN12C
SK-MEL-28 = system: SK-MEL-28
RXF 393 = system: RXF 393
SW-620 = system: SW-620
UO-31 = system: UO-31
SK-MEL-5 = system: SK-MEL-5
HL-60 = system: HL-60
SNB-19 = system: SNB-19
A498 = system: A498
BT-549 = system: BT-549
SR = system: SR

Measured: GI50

COc1cc(/C=C/C(=O)Oc2ccccc2)ccc1C(=O)O/C=C/c1ccccc1
inactive: NCI/ADR-RES > 100 µM | SK-OV-3 > 100 µM | NCI-H522 > 100 µM | CAKI-1 > 100 µM | UACC-257 > 100 µM | CCRF-CEM 17.7 µM | HCC 2998 > 100 µM | OVCAR-3 > 31.6 µM | NCI-H226 > 100 µM | SN12C > 100 µM | SK-MEL-28 > 100 µM | RXF 393 > 100 µM | SW-620 > 100 µM | UO-31 > 100 µM | SK-MEL-5 > 100 µM | HL-60 > 100 µM | SNB-19 > 100 µM | A498 > 21.5 µM | BT-549 > 100 µM

Fc1nc(Sc2ncnc3nc[nH]c23)nc(-c2c3ccccc3c3sc4ccccc4n23)n1
inactive: NCI/ADR-RES > 100 µM | SK-OV-3 > 100 µM | NCI-H522 > 100 µM | CAKI-1 > 100 µM | UACC-257 > 100 µM | CCRF-CEM 40.7 µM | HCC 2998 > 100 µM | OVCAR-3 > 100 µM | NCI-H226 > 100 µM | SN12C > 100 µM | SK-MEL-28 85.5 µM | RXF 393 > 100 µM | SW-620 > 100 µM | UO-31 > 100 µM | SK-MEL-5 > 100 µM | HL-60 > 100 µM | SNB-19 > 100 µM | A498 > 100 µM | BT-549 > 100 µM

CC(=O)Oc1ccc2c(c1)Oc1cc(C(C)=O)ccc1C21OC(=O)c2ccccc21 (configuration not stated)
inactive: NCI/ADR-RES > 100 µM | SK-OV-3 94.8 µM | NCI-H522 > 100 µM | CAKI-1 > 100 µM | UACC-257 > 100 µM | HCC 2998 > 100 µM | OVCAR-3 60.3 µM | SN12C > 100 µM | SK-MEL-28 > 100 µM | RXF 393 39.7 µM | SW-620 > 100 µM | UO-31 85.5 µM | SK-MEL-5 > 100 µM | HL-60 44.6 µM | SNB-19 > 100 µM | A498 > 100 µM | BT-549 > 100 µM

CN(C)c1ccc(/C=C(\NC(=O)c2ccccc2)c2nn(C)c(=O)o2)cc1
inactive: NCI/ADR-RES 21.7 µM | SK-OV-3 > 100 µM | NCI-H522 17.6 µM | CAKI-1 > 100 µM | UACC-257 33 µM | CCRF-CEM 34.7 µM | HCC 2998 > 100 µM | OVCAR-3 43.9 µM | NCI-H226 23.4 µM | SN12C > 100 µM | SK-MEL-28 > 100 µM | RXF 393 > 100 µM | SW-620 52 µM | UO-31 > 100 µM | SK-MEL-5 26.3 µM | HL-60 34.6 µM | SNB-19 28.1 µM | A498 > 100 µM | BT-549 > 100 µM

CC1(C)COC(c2cccc(C3=NC(C)(C)CO3)c2Br)=N1
inactive: NCI/ADR-RES > 100 µM | CAKI-1 > 100 µM | UACC-257 > 100 µM | HCC 2998 > 100 µM | NCI-H226 > 100 µM | SR > 100 µM | SK-MEL-28 > 100 µM | RXF 393 > 100 µM | SW-620 > 100 µM | UO-31 > 100 µM | SK-MEL-5 > 100 µM | HL-60 > 100 µM | SNB-19 > 100 µM | BT-549 > 100 µM

O=[N+]([O-])C(=C(Nc1ccccc1)Nc1ccccc1)C(Cl)=C(Cl)Cl
inactive: NCI/ADR-RES 22.6 µM | SK-OV-3 29 µM | NCI-H522 21.4 µM | CAKI-1 17.1 µM | UACC-257 14.9 µM | CCRF-CEM 8.04 µM | HCC 2998 19.5 µM | OVCAR-3 16.5 µM | NCI-H226 19 µM | SN12C 17.1 µM | SK-MEL-28 18.7 µM | RXF 393 15.8 µM | SW-620 14.5 µM | UO-31 24.5 µM | SK-MEL-5 13.8 µM | SNB-19 17.9 µM | A498 9.93 µM | BT-549 13.9 µM

CSC1NNC2(C(=O)N1)c1ccccc1-c1ccccc12 (configuration not stated)
inactive: NCI/ADR-RES > 10 µM | SK-OV-3 > 10 µM | NCI-H522 > 10 µM | CAKI-1 > 10 µM | UACC-257 > 10 µM | CCRF-CEM > 10 µM | HCC 2998 > 10 µM | NCI-H226 > 10 µM | SN12C > 10 µM | SR > 10 µM | SK-MEL-28 > 10 µM | RXF 393 > 10 µM | SW-620 > 10 µM | UO-31 > 10 µM | SK-MEL-5 > 10 µM | HL-60 > 10 µM | SNB-19 > 10 µM | BT-549 > 10 µM

O=c1oc2ccc3ccccc3c2cc1-c1cn2c(n1)sc1ccccc12
inactive: NCI/ADR-RES > 100 µM | SK-OV-3 > 100 µM | NCI-H522 > 100 µM | CAKI-1 > 100 µM | UACC-257 > 100 µM | CCRF-CEM > 100 µM | HCC 2998 > 100 µM | OVCAR-3 > 100 µM | NCI-H226 > 100 µM | SK-MEL-28 > 100 µM | RXF 393 > 100 µM | SW-620 > 100 µM | UO-31 > 100 µM | SK-MEL-5 > 100 µM | HL-60 > 100 µM | SNB-19 > 100 µM | A498 > 100 µM | BT-549 > 100 µM
